{"source": "patent US20050164994A1", "about": "“Treatment of genitourinary tract disorders” (Control Deliver Systems, Inc., priority 2001, published 2005)", "assay": "Canine study: codrug remaining in 5 mg pellets implanted in the prostate", "format": "in vivo", "conditions": "dog prostate, 5 mg implant", "experimental": "A canine study was performed using a codrug of 5-FU and fluocinolone acetonide (Fa) to evaluate the release rate of the codrug in prostate tissue. The results of that study are detailed in FIGS. 1-3. Two 5 mg pellets of the codrug were implanted in the prostate, and the animals were humanely sacrificed on postoperative days, as indicated. The prostates were removed and levels of the codrug in the pellets determined.", "note": "Several values for one entry are separate records, joined by “and”; a condition that tells them apart may be missing. Equal values may be shown once."}
{"smiles": "CC1(C)O[C@@H]2CC3C4C[C@H](F)C5=CC(=O)C=C[C@]5(C)[C@@]4(F)[C@@H](O)C[C@]3(C)[C@]2(C(=O)COC(=O)CC(=O)n2c(=O)[nH]cc(F)c2=O)O1", "note": "(some centres unmarked) [5-FU + FA]", "values": [{"measurement": "Codrug Remaining (single pellet)", "setting": "sacrificed at 28 days", "result": "4.27 mg and 4.24 mg and 4.04 mg and 3.50 mg and 4.14 mg and 4.18 mg and 4.12 mg and 4.23 mg"}, {"measurement": "Codrug Remaining (single pellet)", "setting": "sacrificed at 42 days", "result": "3.50 mg and 3.33 mg and 3.89 mg and 4.12 mg"}]}
